These are literature values, as cited in US9408867B2, “Antifungal compositions for the treatment of skin and nails” (Veloce BioPharma, LLC, priority 2011, dated 2016).

The conditions of data set [1]: human skin in vitro.
For data set [2] the following is noted: 50% solution of DMSO in water.

Where two headings read alike, the source gives them in different places.

On to `COC1=CC(=O)C[C@@H](C)[C@]12Oc1c(Cl)c(OC)cc(OC)c1C2=O` [griseofulvin], for which the ratio of penetration is recorded as 60 in data set [1] (dissolved in DMSO); 3 in data set [1] (dissolved in alcohol); 1 in data set [1] (dissolved in benzene); 40 in data set [1] (dissolved in dimethylacetamide); 7 in data set [1] (dissolved in dimethylformamide).
In the case of `C[C@]12CCC(=O)C=C1CC[C@@H]1[C@@H]2[C@@H](O)C[C@@]2(C)[C@H]1CC[C@]2(O)C(=O)CO` [hydrocortisone], in data set [2], the rate of penetration entry is listed as “markedly enhanced”.
